For 29 compounds, inhibition and IC50 results are on record in patent US7501430B2 (ArQule, Inc., priority 2006, dated 2009).

SMILES strings stand for the structures. Read-outs that look alike come from different tables or passages of the source.

In the assay the target is T1, mutant B-RAF (Homo sapiens, UniProt P15056, V600E).
T1 construct: purchased Upstate (Charlottesville, Va.)
Nature of the assay: RAF biochemical assay (MEK-1 phosphorylation, anti-phospho MEK1/2 detection). The note with it: for inhibition at 10 µM: read-out: Mutant B-RAF % inhibition. A digest of the protocol:
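Detection is by ELISA: after a 30 min room-temperature reaction, plate-captured GST-MEK-1 is probed with anti-phospho MEK1/2, then an AP-tagged secondary antibody with fluorescent Attophos read-out.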

T1 sequence (P15056 whole entry V600E): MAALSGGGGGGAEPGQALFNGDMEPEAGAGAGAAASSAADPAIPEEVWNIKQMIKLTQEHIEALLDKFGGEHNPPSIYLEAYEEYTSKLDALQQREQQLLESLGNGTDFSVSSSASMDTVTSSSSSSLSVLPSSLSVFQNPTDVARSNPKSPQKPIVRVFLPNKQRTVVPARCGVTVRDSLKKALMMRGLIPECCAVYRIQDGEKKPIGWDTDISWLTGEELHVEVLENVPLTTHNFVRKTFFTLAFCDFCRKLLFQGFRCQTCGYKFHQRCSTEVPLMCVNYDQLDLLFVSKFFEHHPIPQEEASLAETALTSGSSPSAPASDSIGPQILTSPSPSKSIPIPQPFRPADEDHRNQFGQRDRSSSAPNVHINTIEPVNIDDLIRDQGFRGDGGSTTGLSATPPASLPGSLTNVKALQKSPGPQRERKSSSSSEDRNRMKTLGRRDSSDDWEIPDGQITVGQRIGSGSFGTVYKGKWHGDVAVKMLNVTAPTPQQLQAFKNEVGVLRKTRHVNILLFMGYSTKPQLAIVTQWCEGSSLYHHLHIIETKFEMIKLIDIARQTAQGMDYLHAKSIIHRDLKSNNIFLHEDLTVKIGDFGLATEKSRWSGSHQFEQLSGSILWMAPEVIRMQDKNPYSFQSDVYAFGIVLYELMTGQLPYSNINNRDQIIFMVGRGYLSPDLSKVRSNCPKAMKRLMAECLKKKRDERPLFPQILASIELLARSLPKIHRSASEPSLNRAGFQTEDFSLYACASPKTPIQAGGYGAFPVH

For `O=C(Nc1ccc(C(F)(F)F)cc1)N1CCC(Nc2nccc(-c3c(-c4ccc(F)cc4)nc4occn34)n2)CC1` [Example 182, 4-({4-[6-(4-fluorophenyl)imidazo[2,1-b][1,3]oxazol-5-yl]pyrimidin-2-yl}amino)-N-[4-(trifluoromethyl)phenyl]piperidine-1-carboxamide], the inhibition (usually the share of the control response that was lost under treatment) at 10 µM is 45%.
With `O=C(NCC1CCCCC1)N1CCC(Nc2nccc(-c3c(-c4ccc(F)cc4)nc4occn34)n2)CC1` [Example 183, N-(cyclohexylmethyl)-4-({4-[6-(4-fluorophenyl)imidazo[2,1-b][1,3]oxazol-5-yl]pyrimidin-2-yl}amino)piperidine-1-carboxamide], the IC50 (in general, the point on the concentration scale where inhibition reaches its midpoint) (read-out: Mutant B-RAF IC50) is 3610 nM.
Take `O=C(NCCc1ccc(F)cc1)N1CCC(Nc2nccc(-c3c(-c4ccc(F)cc4)nc4occn34)n2)CC1` [Example 184, N-[2-(4-fluorophenyl)ethyl]-4-({4-[6-(4-fluorophenyl)imidazo[2,1-b][1,3]oxazol-5-yl]pyrimidin-2-yl}amino)piperidine-1-carboxamide]: the IC50 (read-out: Mutant B-RAF IC50) was determined as 1280 nM.
Regarding `CC(C)(C)NC(=O)N1CCC(Nc2nccc(-c3c(-c4ccc(F)cc4)nc4occn34)n2)CC1` [Example 185, N-(tert-butyl)-4-({4-[6-(4-fluorophenyl)imidazo[2,1-b][1,3]oxazol-5-yl]pyrimidin-2-yl}amino)piperidine-1-carboxamide], the IC50 (read-out: Mutant B-RAF IC50) stood at 1580 nM.
With `Cc1cc(NC(=O)N2CCC(Nc3nccc(-c4c(-c5ccc(F)cc5)nc5occn45)n3)CC2)c(C(F)(F)F)o1` [Example 186, 4-({4-[6-(4-fluorophenyl)imidazo[2,1-b][1,3]oxazol-5-yl]pyrimidin-2-yl}amino)-N-[5-methyl-2-(trifluoromethyl)-3-furyl]piperidine-1-carboxamide], the inhibition at 10 µM is 16%.
The same measure, in the same setting: as for `O=C(Nc1ccccc1F)N1CCC(Nc2nccc(-c3c(-c4ccc(F)cc4)nc4occn34)n2)CC1` [Example 187, N-(2-fluorophenyl)-4-({4-[6-(4-fluorophenyl)imidazo[2,1-b][1,3]oxazol-5-yl]pyrimidin-2-yl}amino)piperidine-1-carboxamide], the figure is 10%.
Regarding `CCC(=O)N1CCC(Nc2nccc(-c3c(-c4ccc(F)cc4)nc4occn34)n2)CC1` [Example 188, 4-[6-(4-fluorophenyl)imidazo[2,1-b][1,3]oxazol-5-yl]-N-(1-propionylpiperidin-4-yl)pyrimidin-2-amine], where the note is “read-out: Mutant B-RAF IC50”, the IC50 came out at 1500 nM.
The same measure, in the same setting: as for `O=C(CCc1ccccc1)N1CCC(Nc2nccc(-c3c(-c4ccc(F)cc4)nc4occn34)n2)CC1` [Example 189, 4-[6-(4-fluorophenyl)imidazo[2,1-b][1,3]oxazol-5-yl]-N-[1-(3-phenylpropanoyl)piperidin-4-yl]pyrimidin-2-amine], the figure is 1940 nM.
Regarding `NCC(=O)N1CCC(Nc2nccc(-c3c(-c4ccc(F)cc4)nc4occn34)n2)CC1` [Example 190, N-[1-(aminoacetyl)piperidin-4-yl]-4-[6-(4-fluorophenyl)imidazo[2,1-b][1,3]oxazol-5-yl]pyrimidin-2-amine], where the note is “read-out: Mutant B-RAF IC50”, the half-maximal inhibitory concentration (IC50) is 1150 nM.
As to `CC(C)(N)C(=O)N1CCC(Nc2nccc(-c3c(-c4ccc(F)cc4)nc4occn34)n2)CC1` [Example 191, N-[1-(2-amino-2-methylpropanoyl)piperidin-4-yl]-4-[6-(4-fluorophenyl)imi-dazo[2,1-b][1,3]oxazol-5-yl]pyrimidin-2-amine], the IC50 is 3760 nM.
For the compound `O=C([C@@H]1CCCN1)N1CCC(Nc2nccc(-c3c(-c4ccc(F)cc4)nc4occn34)n2)CC1` [Example 192, 4-[6-(4-fluorophenyl)imidazo[2,1-b][1,3]oxazol-5-yl]-N-(1-L-prolylpiperidin-4-yl)pyrimidin-2-amine], the half-maximal inhibitory concentration (IC50) (read-out: Mutant B-RAF IC50) is 1450 nM.
On to `O=C(Nc1ccc(F)c(F)c1)N1CCC(Nc2nccc(-c3c(-c4ccc(F)cc4)nc4occn34)n2)CC1` [Example 193, N-(3,4-difluorophenyl)-4-({4-[6-(4-fluorophenyl)imidazo[2,1-b][1,3]oxazol-5-yl]pyrimidin-2-yl}amino)piperidine-1-carboxamide], for which, where the note is “read-out: Mutant B-RAF IC50”, the IC50 was found to be 1230 nM.
With `O=C(NCc1ccc(F)cc1)N1CCC(Nc2nccc(-c3c(-c4ccc(F)cc4)nc4occn34)n2)CC1` [Example 194, N-(4-fluorobenzyl)-4-({4-[6-(4-fluorophenyl)imidazo[2,1-b][1,3]oxazol-5-yl]pyrimidin-2-yl}amino)piperidine-1-carboxamide], the inhibition at 10 µM amounted to 55%.
Still for that read-out and setting: as for `C[C@H](NC(=O)N1CCC(Nc2nccc(-c3c(-c4ccc(F)cc4)nc4occn34)n2)CC1)c1ccccc1` [Example 195, 4-({4-[6-(4-fluorophenyl)imidazo[2,1-b][1,3]oxazol-5-yl]pyrimidin-2-yl}amino)-N-[(1S)-1-phenylethyl]piperidine-1-carboxamide], the figure is 56%.
In the case of `N[C@@H](CCC(=O)O)C(=O)N1CCC(Nc2nccc(-c3c(-c4ccc(F)cc4)nc4occn34)n2)CC1` [Example 196, (4S)-4-amino-5-[4-({4-[6-(4-fluorophenyl)imidazo[2,1-b][1,3]oxazol-5-yl]pyrimidin-2-yl}amino)piperidin-1-yl]-5-oxopentanoic acid], the IC50 (read-out: Mutant B-RAF IC50) was 3320 nM.
The same measure, in the same setting: as for `O=S(=O)(c1ccccc1)N1CCC(Nc2nccc(-c3c(-c4ccc(F)cc4)nc4occn34)n2)CC1` [Example 197, 4-[6-(4-fluorophenyl)imidazo[2,1-b][1,3]oxazol-5-yl]-N-[1-(phenylsulfonyl)piperidin-4-yl]pyrimidin-2-amine], the figure is 168 nM.
In the case of `Cc1ccc(S(=O)(=O)N2CCC(Nc3nccc(-c4c(-c5ccc(F)cc5)nc5occn45)n3)CC2)cc1` [Example 198, 4-[6-(4-fluorophenyl)imidazo[2,1-b][1,3]oxazol-5-yl]-N-{1-[(4-methylphenyl)sulfonyl]piperidin-4-yl}pyrimidin-2-amine], the IC50 (read-out: Mutant B-RAF IC50) stood at 218 nM.
Take `O=S(=O)(c1ccc(Cl)cc1)N1CCC(Nc2nccc(-c3c(-c4ccc(F)cc4)nc4occn34)n2)CC1` [Example 199, N-{1-[(4-chlorophenyl)sulfonyl]piperidin-4-yl}-4-[6-(4-fluorophenyl)imidazo[2,1-b][1,3]oxazol-5-yl]pyrimidin-2-amine]: for the setting “read-out: Mutant B-RAF IC50”, the IC50 was determined as 92 nM.
For the compound `COc1ccc(S(=O)(=O)N2CCC(Nc3nccc(-c4c(-c5ccc(F)cc5)nc5occn45)n3)CC2)cc1` [Example 200, 4-[6-(4-fluorophenyl)imidazo[2,1-b][1,3]oxazol-5-yl]-N-{1-[(4-methoxyphenyl)sulfonyl]piperidin-4-yl}pyrimidin-2-amine], under “read-out: Mutant B-RAF IC50”, the 50% inhibitory concentration (IC50) was found to be 115 nM.
The same measure, in the same setting: in the case of `CC(C)c1ccc(S(=O)(=O)N2CCC(Nc3nccc(-c4c(-c5ccc(F)cc5)nc5occn45)n3)CC2)cc1` [Example 201, 4-[6-(4-fluorophenyl)imidazo[2,1-b][1,3]oxazol-5-yl]-N-{1-[(4-isopropylphenyl)sulfonyl]piperidin-4-yl}pyrimidin-2-amine] it was 420 nM.
Still for that read-out and setting: as for `O=S(=O)(c1cccc(C(F)(F)F)c1)N1CCC(Nc2nccc(-c3c(-c4ccc(F)cc4)nc4occn34)n2)CC1` [Example 202, 4-[6-(4-fluorophenyl)imidazo[2,1-b][1,3]oxazol-5-yl]-N-(1-{[3-(trifluoromethyl)phenyl]sulfonyl}piperidin-4-yl)pyrimidin-2-amine], the figure is 840 nM; as for `O=S(=O)(c1ccc(OC(F)(F)F)cc1)N1CCC(Nc2nccc(-c3c(-c4ccc(F)cc4)nc4occn34)n2)CC1` [Example 203, 4-[6-(4-fluorophenyl)imidazo[2,1-b][1,3]oxazol-5-yl]-N-(1-{[4-(trifluoromethoxy)phenyl]sulfonyl}piperidin-4-yl)pyrimidin-2-amine], 521 nM; as for `O=S(=O)(c1ccc(F)c(Cl)c1)N1CCC(Nc2nccc(-c3c(-c4ccc(F)cc4)nc4occn34)n2)CC1` [Example 204, N-{1-[(3-chloro-4-fluorophenyl)sulfonyl]piperidin-4-yl}-4-[-6-(4-fluorophenyl)imidazo[2,1-b][1,3]oxazol-5-yl]pyrimidin-2-amine], 541 nM.
Consider `O=S(=O)(c1cc(Cl)cc(Cl)c1)N1CCC(Nc2nccc(-c3c(-c4ccc(F)cc4)nc4occn34)n2)CC1` [Example 205, N-{1-[(3,5-dichlorophenyl)sulfonyl]piperidin-4-yl}-4-[6-(4-fluorophenyl)imidazo[2,1-b][1,3]oxazol-5-yl]pyrimidin-2-amine], for which, where the note is “read-out: Mutant B-RAF IC50”, the IC50 turned out to be 981 nM.
Still for that read-out and setting: as for `O=S(=O)(c1cccc(Cl)c1)N1CCC(Nc2nccc(-c3c(-c4ccc(F)cc4)nc4occn34)n2)CC1` [Example 206, N-{1-[(3-chlorophenyl)sulfonyl]piperidin-4-yl}-4-[6-(4-fluorophenyl)imidazo[2,1-b][1,3]oxazol-5-yl]pyrimidin-2-amine], the figure is 329 nM; as for `O=S(=O)(c1cc(C(F)(F)F)cc(C(F)(F)F)c1)N1CCC(Nc2nccc(-c3c(-c4ccc(F)cc4)nc4occn34)n2)CC1` [Example 207, N-(1-{[3,5-bis(trifluoro-methyl)phenyl]sulfonyl}piperidin-4-yl)-4-[6-(4-fluorophenyl)imidazo[2,1-b][1,3]oxazol-5-yl]pyrimidin-2-amine], 27 nM; as for `COc1cccc(-c2nc3sccn3c2-c2ccnc(NC3CCNCC3)n2)c1` [Example 208, 4-[6-(3-methoxyphenyl)imidazo[2,1-b][1,3]thiazol-5-yl]-N-piperidin-4-ylpyrimidin-2-amine], 2930 nM.
Consider `Nc1c(Cl)c(Cl)nc(C(=O)N2CCC(Nc3nccc(-c4c(-c5ccc(F)cc5)nc5occn45)n3)CC2)c1Cl` [Example 209, N-{1-[(4-amino-3,5,6-trichloropyridin-2-yl)carbonyl]piperidin-4-yl}-4-[6-(4-fluorophenyl)imidazo[2,1-b][1,3]oxazol-5-yl]pyrimidin-2-amine], for which the inhibition at 10 µM turned out to be 49%.
Still for that read-out and setting: in the case of `COc1cccc(OC)c1C(=O)N1CCC(Nc2nccc(-c3c(-c4ccc(F)cc4)nc4occn34)n2)CC1` [Example 210, N-[1-(2,6-dimethoxybenzoyl)piperidin-4-yl]-4-[6-(4-fluorophenyl)imidazo[2,1-b][1,3]oxazol-5-yl]pyrimidin-2-amine] it was 38%.
